Assay results from patent US5470855A, “Certain heterocyclic thiazole derivatives and their therapeutic use” (Sanofi, priority 1989, dated 1995).

Legend:
[1] = system: guinea pig; experiment: PAF-induced bronchospasm in the guinea pig; format: in vivo
[2] = system: mouse; experiment: protection against PAF-induced lethal systemic shock in the mouse; format: in vivo; settings: oral dose of 5 mg/kg, PAF 100 μg/kg
Description: Haemostas, 56(1) 40-44 (1986) and that of protection against lethal systemic shock in the mouse, which is described in J. Pharmacol. Exp. Ther 247(2) 617-23 (1988).

[3] = system: rabbit platelets; experiment: inhibition of the aggregation of rabbit platelets induced by the PAF-acether; format: cell-based; settings: Oryctolagus cuniculus, Platelet, PAF introduced into the medium at 4×10^-10 M, read-out: IC50 (concentration inhibiting 50% of the aggregation induced by the PAF)
Description: Thus in vitro it is possible to study the inhibition of the aggregation of rabbit platelets induced by the PAF-acether according to the method described in Thrombosis Research 41 211-226 (1986). […] Therap.

| Structure (SMILES) | protection from the lethal systemic shock induced by the PAF [2] | also measured |
| --- | --- | --- |
| CC(C)c1cc(C(C)C)c(-c2csc(N(CCN(C)C)Cc3cccnc3)n2)c(C(C)C)c1 [Example 2] | – | duration of complete inhibition of the bronchospasm ([1]; IV dose of 1 mg/kg): more than 96 hours; duration of complete inhibition of the bronchospasm ([1]; oral dose of 3 mg/kg): more than 96 hours |
| Cc1cc(C)c(-c2csc(N(CCN(C)C)Cc3cccnc3)n2)c(C)c1 [Example 14, 2-(N-[2-N',N'-dimethylaminoethyl]N-[3-pyridylmethyl]amino)4-(2,4,6-trimethylphenyl)thiazole] | protect the mouse from the lethal systemic shock | – |
| Cc1sc(N(CCN(C)C)Cc2cccnc2)nc1-c1ccc(Cl)cc1Cl [Example 50, 2-(N-[2-N',N'-dimethylaminoethyl]N-[3-pyridylmethyl]amino)4-(2,4-dichlorophenyl) 5-methyl thiazole] | protect the mouse from the lethal systemic shock | – |
| Cc1oc(N(CCN(C)C)Cc2cccnc2)nc1-c1ccc(Cl)cc1Cl [Example 79, 2(N-[2-N',N'-dimethylaminoethyl]N-[3-pyridylmethyl]amino) 4-(2,4-dichlorophenyl)5-methyl oxazole] | protect the mouse from the lethal systemic shock | – |
| CC(C)c1cc(C(C)C)c(-c2nc(N(CCN(C)C)Cc3cccnc3)sc2Br)c(C(C)C)c1 [Example 90, 2-(N-[2-N',N'-dimethylaminoethyl]N-[3-pyridylmethyl]amino) 5-bromo 4-(2,4,6-triisopropylphenyl) thiazole] | protect the mouse from the lethal systemic shock | – |
| CC(C)c1cc(C(C)C)c(-c2nc(N(CCN(C)C)Cc3cccnc3)sc2Cl)c(C(C)C)c1 [Example 91, 2-(N-[2-N',N'-dimethylaminoethyl]N-[3-pyridylmethyl]amino) 5-chloro 4-(2,4,6-triisopropylphenyl)thiazole] | protect the mouse from the lethal systemic shock | – |
| Cc1nnc2n1-c1sc(CCC(=O)N3CCOCC3)cc1C(c1ccccc1Cl)=NC2 [WEB 2086] | – | IC50 [3]: 50 nM |
